Source: patent US20100021931A1, “Fluorescence based reporter construct for the direct detection of TGF-beta receptor activation and modulators thereof” (Technische Universitat Dresden, priority 2008, published 2010)

What was measured:
[1] = tested on: phosphorylated Smad1/5 transcription factors; experiment: phospho-SMAD1/5/8 antibody staining of fixed embryos; type: in vivo, Danio rerio; conditions: 30% epiboly
Description: While at that stage there is not yet a morphological marker for the prospective dorsal or ventral sides of the embryo, BMP pathway activation can be detected by accumulation of phosphorylated Smad1/5 transcription factors in the prospective ventral nuclei. […] As shown in FIG. 3 (top), fluorescence of the TIPF reporter (left) coincides with the region of increased pSmad staining (center).

[2] = tested on: homozygous tkv mutants; experiment: Rescue of tkv mutant flies by the ubiquitin-promoter reporter transgene; type: in vivo, Drosophila; conditions: expressed from the ubiquitin promoter in transgenic flies
Description: Using P-element mediated transgenesis with the plasmids described above transgenic fly lines were generated in a w^1118 background expressing the TIPF fusion protein under control of the ubiquitously expressed Ubiquitin promoter or in a tissue specific manner from the UAS promotor. For both transgenic construct insertions on all three major chromosomes were obtained. Insertions on the X chromosome were balanced with FM6 w^−, 2nd chromosome insertion were balanced with CyO and 3rd chromosomal insertions with TM3, Sb.

[3] = tested on: zebrafish BMP receptor ALK3; experiment: Zebrafish ALK3 reporter in zebrafish assays according to example 1; type: in vivo; conditions: assays as in example 1
Chain of zebrafish BMP receptor ALK3 (as listed by the source): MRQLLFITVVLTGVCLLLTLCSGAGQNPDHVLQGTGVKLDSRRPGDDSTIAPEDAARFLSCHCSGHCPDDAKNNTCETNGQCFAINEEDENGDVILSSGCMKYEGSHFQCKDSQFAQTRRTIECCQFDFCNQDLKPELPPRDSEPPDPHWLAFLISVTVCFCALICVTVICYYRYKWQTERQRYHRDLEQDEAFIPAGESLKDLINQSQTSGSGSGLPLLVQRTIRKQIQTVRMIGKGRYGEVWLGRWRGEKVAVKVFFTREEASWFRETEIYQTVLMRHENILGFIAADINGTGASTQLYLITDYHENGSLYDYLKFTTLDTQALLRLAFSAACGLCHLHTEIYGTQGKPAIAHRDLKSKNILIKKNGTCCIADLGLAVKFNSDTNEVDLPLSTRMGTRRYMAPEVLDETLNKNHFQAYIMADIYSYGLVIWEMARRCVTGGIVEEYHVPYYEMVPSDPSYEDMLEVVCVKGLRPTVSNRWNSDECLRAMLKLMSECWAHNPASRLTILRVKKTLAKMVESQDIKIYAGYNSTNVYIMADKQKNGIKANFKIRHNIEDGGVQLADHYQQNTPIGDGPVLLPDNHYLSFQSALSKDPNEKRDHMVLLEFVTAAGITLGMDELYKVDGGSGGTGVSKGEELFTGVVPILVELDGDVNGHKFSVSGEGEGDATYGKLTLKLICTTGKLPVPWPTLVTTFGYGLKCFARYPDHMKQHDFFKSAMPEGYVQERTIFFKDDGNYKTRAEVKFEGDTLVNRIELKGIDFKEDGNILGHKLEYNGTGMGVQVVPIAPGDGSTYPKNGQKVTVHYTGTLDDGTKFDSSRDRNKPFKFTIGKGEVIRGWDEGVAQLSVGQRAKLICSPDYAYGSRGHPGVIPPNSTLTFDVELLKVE
Description: To generate the zebrafish ALK3 reporter construct, the Tkv CDS was excised from the TIPF reporter (as constructed in example 1) with PstI and EcoRI to obtain the linearized expression vector without the TGF-beta receptor according to SEQ ID No. 22. In this vector the corresponding full length cDNA encoding the zebrafish ALK3 according to SEQ ID No. 2 was cloned, which was amplified from a custom cDNA library using primers carrying EcoRI (5′primer) and NsiI (3′primer).
Zebrafish assays were performed according to example 1.

Substance | reporter fluorescence versus region of phospho-Smad staining [1] | rescue of lethality of homozygous tkv mutants [2] | behaviour of reporter in zebrafish assays [3]
TIPF reporter: fusion protein of Drosophila Tkv, an inverse pericam core and Drosophila FKBP12 linked by short linkers | coincided with the region of BMP pathway activation | rescue the lethality associated with homozygous tkv mutants to full adult survival | 
zebrafish ALK3 reporter: Inverse Pericam core and Drosophila FKBP12 cassette fused to the zebrafish BMP receptor ALK3 |  |  | behaved like the fly version used in example 1
